Read-outs that look alike come from different tables or passages of the source.
How the values were obtained:
Format in all cases: cell-based, human
SR = test: NCI cytotoxicity screen; details: Homo sapiens
SF-268 = test: NCI cytotoxicity screen; details: Homo sapiens
UACC-62 = test: NCI cytotoxicity screen; details: Homo sapiens
HCT-15 = test: NCI cytotoxicity screen; details: Homo sapiens
SW-620 = test: NCI cytotoxicity screen; details: Homo sapiens
MDA-MB-231/ATCC = test: NCI cytotoxicity screen; details: Homo sapiens, MDA-MB-231
T-47D = test: NCI cytotoxicity screen; details: Homo sapiens, T47D
NCI-H226 = test: NCI cytotoxicity screen; details: Homo sapiens
MALME-3M = test: NCI cytotoxicity screen; details: Homo sapiens, Malme-3M
A498 = test: NCI cytotoxicity screen; details: Homo sapiens, A498
UACC-257 = test: NCI cytotoxicity screen; details: Homo sapiens
NCI/ADR-RES = test: NCI cytotoxicity screen; details: Homo sapiens, five-dose
A549/ATCC = test: NCI cytotoxicity screen; details: Homo sapiens, A549
SN12C = test: NCI cytotoxicity screen; details: Homo sapiens, SN12C
OVCAR-3 = test: NCI cytotoxicity screen; details: Homo sapiens, OVCAR-3
59 cancer cell lines = test: NCI cytotoxicity screen, full panel; details: for GI50: read-out: GI50 MG_MID
NCI-H522 = test: NCI cytotoxicity screen; details: Homo sapiens
BT-549 = test: NCI cytotoxicity screen; details: Homo sapiens
[1] = system: Ovarian cancer subpanel tumor cell lines; test: NCI cytotoxicity screen, subpanel; details: for GI50 / TGI: subpanel value, Ovarian cancer
KM12 = test: NCI cytotoxicity screen; details: Homo sapiens, KM12
SK-MEL-5 = test: NCI cytotoxicity screen; details: Homo sapiens
[2] = system: Breast cancer subpanel tumor cell lines; test: NCI cytotoxicity screen, subpanel; details: for GI50 / TGI: subpanel value, Breast cancer
[3] = system: Renal cancer subpanel tumor cell lines; test: NCI cytotoxicity screen, subpanel
[4] = system: Colon cancer subpanel tumor cell lines; test: NCI cytotoxicity screen, subpanel; details: for GI50 / TGI: subpanel value, Colon cancer
[5] = full panel mean-graph midpoint, listed as gefitinib

SMILES: C#Cc1cccc(Nc2ncnc3cc(OCCOC)c(OCCOC)cc23)c1 [Erlotinib, reference compound]
- GI50 (SR): 6.3 µM
- GI50 (SF-268): 19.9 µM
- GI50 (UACC-62): 1.25 µM
- GI50 (HCT-15): 3.16 µM
- GI50 (SW-620): 5.01 µM
- GI50 (MDA-MB-231/ATCC): 1.99 µM
- GI50 (T-47D): 3.16 µM
- GI50 (NCI-H226): 6.3 µM
- GI50 (MALME-3M): 5.01 µM
- GI50 (A498): 1.58 µM
- GI50 (UACC-257): 100 µM
- GI50 (NCI/ADR-RES): 6.3 µM
- GI50 (A549/ATCC): 7.94 µM
- GI50 (SN12C): 6.3 µM
- GI50 (OVCAR-3): 3.16 µM
- TGI MG_MID (59 cancer cell lines; full panel mean-graph midpoint): 66.3 µM
- TGI MG_MID (59 cancer cell lines; full panel mean-graph midpoint, listed as erlotinib): 14.3 µM
- GI50 (59 cancer cell lines; full panel mean-graph midpoint): 7.68 µM
- CC50 (59 cancer cell lines; read-out: LC50 MG_MID, full panel mean-graph midpoint): 95.6 µM
- CC50 (59 cancer cell lines; read-out: LC50 MG_MID, full panel mean-graph midpoint, listed as erlotinib): 14.3 µM
- GI50 (NCI-H522): 1 µM
- GI50 (BT-549): 39.8 µM
- CC50 ([1]; Homo sapiens, read-out: LC50): 97.1 µM
- GI50 [1]: 5.52 µM
- TGI [1]: 74.41 µM
- GI50 (KM12): 63.1 µM
- GI50 (SK-MEL-5): 15.8 µM
- CC50 ([2]; Homo sapiens, read-out: LC50): 96.4 µM
- GI50 ([2]; Homo sapiens): 24.7 µM
- GI50 [2]: 24.7 µM
- TGI [2]: 70.53 µM
- CC50 ([3]; Homo sapiens, read-out: LC50): 89.2 µM
- GI50 ([3]; Homo sapiens, subpanel value, Renal cancer): 2.5 µM
- GI50 ([3]; subpanel value, Renal cancer): 2.46 µM
- TGI ([3]; subpanel value, Renal cancer): 42.59 µM
- CC50 ([4]; Homo sapiens, read-out: LC50): > 100 µM
- GI50 ([4]; Homo sapiens): 51.7 µM
- GI50 [4]: 51.7 µM
- TGI [4]: c (Compounds showed values > 100 μM)

SMILES: COc1cc2ncnc(Nc3ccc(F)c(Cl)c3)c2cc1OCCCN1CCOCC1 [Gefitinib, reference compound]
- GI50 (SR): 3.16 µM
- GI50 (SF-268): 7.94 µM
- GI50 (UACC-62): 5.01 µM
- GI50 (HCT-15): 5.01 µM
- GI50 (SW-620): 7.94 µM
- GI50 (MDA-MB-231/ATCC): 12.6 µM
- GI50 (NCI-H226): 15.8 µM
- GI50 (MALME-3M): 3.16 µM
- GI50 (A498): 0.4 µM
- GI50 (NCI/ADR-RES): 12.6 µM
- GI50 (A549/ATCC): 7.94 µM
- GI50 (OVCAR-3): 5.01 µM
- CC50 (59 cancer cell lines; Homo sapiens, read-out: LC50 MG_MID, full panel mean-graph midpoint): 95.6 µM
- TGI MG_MID (59 cancer cell lines; full panel mean-graph midpoint): 14.3 µM
- TGI MG_MID (59 cancer cell lines; [5]): 66.3 µM
- GI50 (59 cancer cell lines; full panel mean-graph midpoint): 2.1 µM
- GI50 (59 cancer cell lines; [5]): 7.7 µM
- GI50 (BT-549): 7.94 µM
- GI50 ([1]; Homo sapiens): 3.3 µM
- GI50 [1]: 3.05 µM
- TGI [1]: 33.29 µM
- GI50 (KM12): 7.94 µM
- GI50 (SK-MEL-5): 3.98 µM
- GI50 ([2]; Homo sapiens): 4.7 µM
- GI50 [2]: 4.67 µM
- TGI [2]: 18.62 µM
- GI50 ([4]; Homo sapiens): 5.2 µM
- GI50 [4]: 5.23 µM
- TGI [4]: 18.47 µM
